Assay results published in ChEMBL document CHEMBL1201862, “PubChem BioAssay data set” (2004).
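These data come from cells grown in 96-well plates and exposed to compound for 48 hours at five concentrations. At the GI50, growth is halved.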 Activity calls are given as the source filed them. No stated cut-off is given here; in the data, active = GI50 up to about 1.1 µM and inactive = higher.

How the values were obtained:
Assay in all cases: NCI anticancer screen, dose series, 48 h
DU-145 = system: DU-145
MOLT-4 = system: MOLT-4
Malme-3M = system: Malme-3M
SW-620 = system: SW-620
SNB-19 = system: SNB-19
MDA-MB-231 = system: MDA-MB-231
SN12C = system: SN12C
SF-295 = system: SF-295
EKVX = system: EKVX
RPMI-8226 = system: RPMI-8226
OVCAR-4 = system: OVCAR-4
HL-60 = system: HL-60
HOP-92 = system: HOP-92
NCI-H23 = system: NCI-H23
MCF7 = system: MCF7
M14 = system: M14
SR = system: SR
NCI-H460 = system: NCI-H460
PC-3 = system: PC-3
TK-10 = system: TK-10

Measured: GI50

CC12CP(=O)(O)CC1C2(Cl)Cl (centres undefined)
inactive: DU-145 > 100 µM | MOLT-4 > 100 µM | Malme-3M > 100 µM | SW-620 > 100 µM | SNB-19 > 100 µM | MDA-MB-231 > 100 µM | SN12C > 100 µM | SF-295 > 100 µM | EKVX > 100 µM | RPMI-8226 > 100 µM | OVCAR-4 > 100 µM | HL-60 > 100 µM | HOP-92 > 100 µM | NCI-H23 > 100 µM | MCF7 > 100 µM | M14 > 100 µM | SR > 100 µM | NCI-H460 > 100 µM | PC-3 > 100 µM | TK-10 > 100 µM

O=C(CCCCCCC(=O)Nc1cccnc1)NO [PYROXAMIDE]
active: Malme-3M 0.902 µM
inactive: DU-145 3.71 µM | MOLT-4 2.2 µM | SW-620 3.4 µM | SNB-19 16.1 µM | MDA-MB-231 > 100 µM | SF-295 21.2 µM | EKVX 47.5 µM | RPMI-8226 3.14 µM | OVCAR-4 10.4 µM | HL-60 10.2 µM | HOP-92 12.8 µM | NCI-H23 13 µM | MCF7 3.8 µM | M14 4.45 µM | SR > 100 µM | NCI-H460 2.82 µM | PC-3 7.26 µM | TK-10 7.11 µM

O=C1CC(Cc2n[nH]c3c2CCCC3)CC(=O)N1
inactive: DU-145 > 100 µM | MOLT-4 > 100 µM | Malme-3M > 100 µM | SW-620 > 100 µM | MDA-MB-231 > 100 µM | SN12C > 100 µM | SF-295 > 100 µM | EKVX > 100 µM | RPMI-8226 > 100 µM | OVCAR-4 > 100 µM | HL-60 > 100 µM | HOP-92 > 100 µM | NCI-H23 > 100 µM | MCF7 > 100 µM | M14 > 100 µM | SR > 100 µM | PC-3 > 100 µM | TK-10 > 100 µM

N/C(=N\c1ccccc1)c1ccccc1N
inactive: DU-145 > 100 µM | MOLT-4 > 100 µM | SW-620 > 100 µM | SNB-19 > 100 µM | MDA-MB-231 > 100 µM | SF-295 > 100 µM | EKVX > 100 µM | RPMI-8226 > 100 µM | OVCAR-4 > 100 µM | HL-60 31.4 µM | HOP-92 2.51 µM | NCI-H23 > 100 µM | MCF7 > 100 µM | M14 > 100 µM | SR > 100 µM | NCI-H460 > 100 µM | PC-3 > 100 µM | TK-10 > 100 µM

COC(=O)NC(Nc1ccc(Cl)cc1Cl)(C(F)(F)F)C(F)(F)F
inactive: DU-145 35.3 µM | MOLT-4 37.8 µM | Malme-3M > 100 µM | SW-620 30.9 µM | SNB-19 > 100 µM | MDA-MB-231 > 100 µM | SN12C 80.4 µM | SF-295 > 100 µM | EKVX 48.9 µM | RPMI-8226 31.7 µM | HL-60 29.3 µM | HOP-92 73.3 µM | NCI-H23 > 100 µM | MCF7 > 100 µM | M14 52.4 µM | SR 5.31 µM | NCI-H460 30 µM | PC-3 15.1 µM | TK-10 92.7 µM

C1CNCCNCCN1
inactive: DU-145 > 100 µM | MOLT-4 > 100 µM | SW-620 > 100 µM | SNB-19 > 100 µM | MDA-MB-231 > 100 µM | SN12C > 100 µM | SF-295 > 100 µM | EKVX > 100 µM | RPMI-8226 > 100 µM | OVCAR-4 > 100 µM | HL-60 > 100 µM | HOP-92 > 100 µM | NCI-H23 > 100 µM | MCF7 > 100 µM | M14 > 100 µM | SR > 100 µM | NCI-H460 > 100 µM | PC-3 > 100 µM | TK-10 > 100 µM

Cc1ccc(C(=N)c2ccccc2Cc2cccc3ccccc23)c2ccccc12
inactive: DU-145 > 100 µM | MOLT-4 58.7 µM | Malme-3M > 100 µM | SW-620 71 µM | SNB-19 > 100 µM | MDA-MB-231 > 100 µM | SN12C > 100 µM | SF-295 71.4 µM | EKVX 60.1 µM | OVCAR-4 > 100 µM | HL-60 44.1 µM | HOP-92 > 100 µM | NCI-H23 95.3 µM | MCF7 42.6 µM | M14 32.3 µM | SR 41.6 µM | NCI-H460 41.5 µM | PC-3 > 100 µM | TK-10 > 100 µM

Cc1c(C(=O)OCc2ccccc2)[n+]([O-])c2ccccc2[n+]1[O-]
active: HOP-92 0.22 µM
inactive: DU-145 19.9 µM | MOLT-4 5.4 µM | SNB-19 57.3 µM | MDA-MB-231 20.8 µM | SN12C 31.3 µM | SF-295 32.7 µM | EKVX 25.8 µM | RPMI-8226 11.6 µM | OVCAR-4 20.8 µM | HL-60 26.1 µM | NCI-H23 33.7 µM | MCF7 19.5 µM | M14 32.1 µM | SR 19.5 µM | NCI-H460 25.4 µM | PC-3 23.1 µM | TK-10 33.2 µM

CCCCCCCCCCCCCCCCCCOCC(CO[PH](=O)O)OCCCCCCCCCCCCCCCCCC (centres undefined)
inactive: DU-145 > 50 µM | MOLT-4 > 50 µM | SW-620 > 50 µM | SNB-19 > 50 µM | MDA-MB-231 > 50 µM | SN12C > 50 µM | EKVX > 50 µM | RPMI-8226 > 50 µM | OVCAR-4 > 50 µM | HL-60 > 50 µM | HOP-92 > 50 µM | MCF7 > 50 µM | M14 > 50 µM | SR > 50 µM | NCI-H460 > 50 µM | PC-3 > 50 µM | TK-10 > 50 µM

CN1C(=O)C2(C=CC(O)CC2)c2ccccc21 (centres undefined)
inactive: DU-145 > 100 µM | MOLT-4 > 100 µM | SW-620 > 100 µM | SNB-19 > 100 µM | MDA-MB-231 > 100 µM | SN12C > 100 µM | SF-295 > 100 µM | EKVX > 100 µM | RPMI-8226 > 100 µM | OVCAR-4 > 100 µM | HL-60 > 100 µM | HOP-92 > 100 µM | NCI-H23 > 100 µM | MCF7 > 100 µM | M14 > 100 µM | SR > 100 µM | NCI-H460 > 100 µM | PC-3 > 100 µM | TK-10 > 100 µM

CCCCCCCCCCCCCC1=C(O)C(=O)C(CC2=C(O)C(=O)C(CCCCCCCCCCCCC)=C(O)C2=O)=C(O)C1=O
inactive: DU-145 > 100 µM | MOLT-4 > 10 µM | Malme-3M > 100 µM | SW-620 > 100 µM | SNB-19 27.9 µM | MDA-MB-231 51.9 µM | SN12C > 100 µM | SF-295 52 µM | EKVX > 100 µM | HL-60 32.8 µM | HOP-92 75.2 µM | NCI-H23 > 100 µM | MCF7 > 100 µM | M14 > 100 µM | SR 54.1 µM | PC-3 > 100 µM | TK-10 61.4 µM

COC1C(O)C(C)OC(OC2C(Oc3cccc4c(O)c5c(=O)oc6ccc(C)c7c(=O)oc(c34)c5c67)OC(C)C(O)C2O)C1O (centres undefined)
active: MOLT-4 0.488 µM | SW-620 0.843 µM | HOP-92 0.233 µM | MCF7 0.757 µM | SR 0.373 µM
inactive: DU-145 6.65 µM | Malme-3M 1.35 µM | MDA-MB-231 1.67 µM | SN12C 2.52 µM | SF-295 1.29 µM | EKVX 1.34 µM | RPMI-8226 1.39 µM | OVCAR-4 6.24 µM | HL-60 2.38 µM | NCI-H23 1.28 µM | M14 4.13 µM | NCI-H460 2.26 µM | PC-3 4.04 µM | TK-10 3.1 µM

Oc1ccc(C(O)(c2ccccc2)c2ccccc2)c2ccccc12
inactive: DU-145 2.13 µM | MOLT-4 3.14 µM | Malme-3M 10.2 µM | SW-620 2.64 µM | SNB-19 5.15 µM | MDA-MB-231 1.79 µM | SN12C 2.22 µM | SF-295 2.9 µM | EKVX 10.4 µM | OVCAR-4 5.75 µM | HL-60 2.93 µM | NCI-H23 2.79 µM | MCF7 4.15 µM | M14 2.34 µM | SR 2.5 µM | NCI-H460 2.72 µM | PC-3 2.25 µM | TK-10 2.59 µM
active: HOP-92 < 0.01 µM

C(#C[C@@]12CCC[C@@H]1NCO2)c1ccc2c(c1)OCO2
inactive: DU-145 > 100 µM | MOLT-4 22.2 µM | Malme-3M 28.1 µM | SW-620 81.3 µM | SNB-19 > 100 µM | MDA-MB-231 > 100 µM | SF-295 50.6 µM | EKVX > 100 µM | RPMI-8226 36.6 µM | OVCAR-4 85.9 µM | HL-60 24 µM | HOP-92 35 µM | NCI-H23 > 100 µM | MCF7 57.9 µM | M14 24.7 µM | SR 36.8 µM | NCI-H460 50.9 µM | PC-3 55.8 µM | TK-10 73.3 µM

Nn1c(Nc2ccc(S(=O)(=O)Nc3ncccn3)cc2)nnc(/C=C/c2c(O)ccc3ccccc23)c1=O
inactive: DU-145 33.5 µM | MOLT-4 > 100 µM | Malme-3M 30.8 µM | SW-620 31.8 µM | SNB-19 46.9 µM | MDA-MB-231 21.8 µM | SN12C 28.3 µM | EKVX 24.2 µM | RPMI-8226 34.1 µM | OVCAR-4 24.5 µM | HL-60 20.6 µM | HOP-92 66.2 µM | NCI-H23 19.8 µM | MCF7 21.6 µM | M14 29 µM | SR 23.4 µM | NCI-H460 23.3 µM | PC-3 27.7 µM | TK-10 26.8 µM
